pIC50: −log10 of the molar value.
Test system: 292921-168-R-J2-PDC KRAS tumor spheroid viability
Experiment: Anticancer human tumor 292921-168-R-J2-PDC patient-derived pancreatic carcinoma cell line growth inhibition [KRAS2]
Conditions: spheroids with HUVEC and MSC; for pIC50: curve of first compound; for viability, T/C: stronger effect = lower value
Description: Multicellular complex tumor spheroid response to RAS pathway inhibitors in combination with a targeted agents in patient-derived cell lines with oncogenic KRAS variants from multiple cancer types
A high-throughput screen of multi-cell type tumor spheroids was designed to identify active combinations of targeted small molecules and KRAS pathway inhibitors. Complex spheroids include a stromal component modeled by human endothelial cells (HUVEC) and fibroblasts modeled by human mesenchymal stem cells (MSCs). The concentration ranges selected for each drug and investigational agent were based upon clinically achievable concentrations if the clinical Cmax of the agent was known.
Compounds. The drugs and investigational agents: BI-3406 (NSC825286), BAY-293 (NSC824723), batoprotafib (TNO155; NSC825523), sotorasib (AMG 510; NSC818433), MRTX1257 (NSC819558), elimusertib (BAY 1895344; NSC800525), molibresib (GSK525762; NSC774829), temuterkib (LY3214996; NSC803410), venetoclax (NSC766270), alisertib (NSC759677), olaparib (NSC753686), talazoparib (NSC767125), erdafitinib (NSC781556), ipatasertib (NSC767898), cabozantinib (NSC761068), nintedanib (NSC756659), abemaciclib (NSC768073), docetaxel (NSC628503), trametinib (NSC758246), and sapanisertib (NSC764658) were obtained from the National Cancer Institute (NCI) Developmental Therapeutics Program Chemical Repository. The FDA-approved anticancer drug set is available from the Developmental Therapeutics Program. […] The stock solutions were prepared in dimethyl sulfoxide (DMSO, Sigma-Aldrich, St. Louis, MO, cat. D2650) at 800-fold the tested concentration and stored at -70 degrees C prior to their use. All drugs and investigational agents were tested over a range starting from a high concentration at or near the clinical Cmax and decreasing in half-log increments. If the clinical Cmax for an agent had not been determined, the highest concentration tested was 10 microM.
Cell Culture. All cells were maintained in an incubator at 37 degrees C and 5% CO2 with 95% humidity. The PDC lines were cultured according to standard operating procedures established by the NCI PDMR (https://pdmr.cancer.gov/sops/default.htm). Briefly, all PDCs were thawed and cultured in Matrigel-coated flasks prepared with a working solution of 1X Ham's F-12 nutrient mix, without supplementation (Invitrogen, Waltham, MA, cat. 11765054), 100 U/mL penicillin-streptomycin (Invitrogen, cat. 15140122), and 2.5% Matrigel (Corning Inc., Corning, NY, cat. 354248) for the first three passages. All PDCs were cultured in complete DMEM/F-12 media containing advanced DMEM/F-12 (Invitrogen, cat. 12634028), 4.9% defined fetal bovine serum, heat inactivated (HyClone Laboratories Inc., Logan, UT, cat. SH30070.03HI), 389 ng/mL hydrocortisone (Sigma-Aldrich, cat. H4001), 9.7 ng/mL human EGF recombinant protein (Invitrogen, cat. PHG0313), 23.4 microg/mL adenine (Sigma-Aldrich, cat. A2786), 97.3 U/mL penicillin-streptomycin (Invitrogen, cat. 15140122), 1.9 mM L-glutamine (Invitrogen, cat. 25030081), and 9.7 microM Y-27632 dihydrochloride (Tocris Bioscience, Bristol, United Kingdom, cat. 1254). The PDCs were cultured in complete DMEM/F12 media without 9.7 microM Y-27632 dihydrochloride for at least two passages prior to the screen. The established cell line HOP-62 was cultured in RPMI 1640 medium, HEPES (Invitrogen, cat. 22400105) with 10% defined fetal bovine serum (HyClone Laboratories Inc., cat. SH30070.03) and 2 mM L-glutamine (Invitrogen, cat. 25030081). The pooled donor HUVEC were cultured in endothelial cell growth medium 2 (PromoCell, Heidelberg, Germany, cat. C-22011) and the hMSC were cultured in mesenchymal stem cell growth medium 2 (PromoCell, cat. C-28009). For all experiments, HUVEC and hMSC were used at passages </=5, while the malignant cell lines were used at passages </=15. […]

[1] = second compound 0.1 µM, first compound 0.0316 µM
[2] = second compound 0.1 µM, first compound 0.1 µM
[3] = second compound 0.1 µM, first compound 0.316 µM
[4] = second compound 0.1 µM, first compound 1 µM
[5] = second compound 0.1 µM, first compound 3.16 µM
[6] = second compound 0.1 µM, first compound 10 µM
[7] = second compound 0.316 µM, first compound 0.0316 µM
[8] = second compound 0.316 µM, first compound 0.1 µM
[9] = second compound 0.316 µM, first compound 0.316 µM
[10] = second compound 0.316 µM, first compound 1 µM
[11] = second compound 0.316 µM, first compound 3.16 µM
[12] = second compound 0.316 µM, first compound 10 µM
[13] = second compound 1 µM, first compound 0.0316 µM
[14] = second compound 1 µM, first compound 0.1 µM
[15] = second compound 1 µM, first compound 0.316 µM
[16] = second compound 1 µM, first compound 1 µM
[17] = second compound 1 µM, first compound 3.16 µM
[18] = second compound 1 µM, first compound 10 µM
[19] = second compound 3.16 µM, first compound 0.0316 µM
[20] = second compound 3.16 µM, first compound 0.1 µM
[21] = second compound 3.16 µM, first compound 0.316 µM
[22] = second compound 3.16 µM, first compound 1 µM
[23] = second compound 3.16 µM, first compound 3.16 µM
[24] = second compound 3.16 µM, first compound 10 µM
[25] = second compound 10 µM, first compound 0.0316 µM
[26] = second compound 10 µM, first compound 0.1 µM
[27] = second compound 10 µM, first compound 0.316 µM
[28] = second compound 10 µM, first compound 1 µM
[29] = second compound 10 µM, first compound 3.16 µM
[30] = second compound 10 µM, first compound 10 µM
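Also: drug exposure lasted seven days after spheroids formed for three days.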
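For viability, T/C in this document: percent of DMSO vehicle control viability which is 100%.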

Structure (SMILES) | pIC50 (second compound 0.1 µM) | pIC50 (second compound 0.316 µM) | pIC50 (second compound 1 µM) | pIC50 (second compound 3.16 µM) | pIC50 (second compound 10 µM) | viability, T/C [1] [%] | viability, T/C [2] [%] | viability, T/C [3] [%] | viability, T/C [4] [%] | viability, T/C [5] [%] | viability, T/C [6] [%] | viability, T/C [7] [%] | viability, T/C [8] [%] | viability, T/C [9] [%] | viability, T/C [10] [%] | viability, T/C [11] [%] | viability, T/C [12] [%] | viability, T/C [13] [%] | viability, T/C [14] [%] | viability, T/C [15] [%] | also measured
CCNC(=O)CC1N=C(c2ccc(Cl)cc2)c2cc(OC)ccc2-n2c(C)nnc21 (configuration not stated) + C=CC(=O)N1CCN(c2nc(=O)n(-c3c(C)ccnc3C(C)C)c3nc(-c4c(O)cccc4F)c(F)cc23)C(C)C1 | 5.22 | 5.22 | 5.37 | 6.28 | > 7.50 | 111 | 104 | 77.2 | 63.1 | 60.7 | 43.4 | 117 | 103 | 81.1 | 68.8 | 63 | 41.5 | 109 | 97 | 77.6 | viability, T/C [16]: 65.4%; viability, T/C [17]: 54.8%; viability, T/C [18]: 40.7%; viability, T/C [19]: 78.2%; viability, T/C [20]: 69.1%; viability, T/C [21]: 53.1%; viability, T/C [22]: 43.8%; viability, T/C [23]: 35.6%; viability, T/C [24]: 26.4%; viability, T/C [25]: 29.1%; viability, T/C [26]: 26.2%; viability, T/C [27]: 23.8%; viability, T/C [28]: 16.8%; viability, T/C [29]: 9.64%; viability, T/C [30]: 6.83%
CC1(C)CCC(CN2CCN(c3ccc(C(=O)NS(=O)(=O)c4ccc(NCC5CCOCC5)c([N+](=O)[O-])c4)c(Oc4cnc5[nH]ccc5c4)c3)CC2)=C(c2ccc(Cl)cc2)C1 |  |  |  |  |  |  |  |  |  |  |  |  |  |  |  |  |  |  |  |  | viability, T/C (compound 0.0316 µM): 102% [middle of 5 runs]; viability, T/C (compound 0.1 µM): 98.2% [middle of 5 runs]; viability, T/C (compound 0.316 µM): 95.9% [middle of 5 runs]; viability, T/C (compound 1 µM): 100% [middle of 5 runs]; viability, T/C (compound 3.16 µM): 27.2% [middle of 5 runs]; viability, T/C (compound 10 µM): 10.3% [middle of 5 runs]; IC50 (curve of compound): 2.17 µM [middle of 4 runs]
Cn1nccc1Nc1nccc(-c2cc3c(s2)C(C)(C)N(CCN2CCOCC2)C3=O)n1 + CNCc1ccccc1-c1csc(C(C)Nc2nc(C)nc3cc(OC)c(OC)cc23)c1 | 7.08 | 7.18 | > 7.50 | > 7.50 | > 7.50 | 73.9 | 45.7 | 19 | 12.3 | 10.2 | 10.2 | 68.8 | 39.7 | 18.6 | 10.9 | 9.74 | 10.6 | 47.1 | 30.1 | 14.5 | viability, T/C [16]: 11.1%; viability, T/C [17]: 8.76%; viability, T/C [18]: 6.3%; viability, T/C [19]: 0.09%; viability, T/C [20]: 0.29%; viability, T/C [21]: 0.03%; viability, T/C [22]: 0.03%; viability, T/C [23]: 0.03%; viability, T/C [24]: 0.11%; viability, T/C [25]: 0.08%; viability, T/C [26]: 0.09%; viability, T/C [27]: 0.1%; viability, T/C [28]: 0.09%; viability, T/C [29]: 0.1%; viability, T/C [30]: 0.15%
COc1cc2nccc(Oc3ccc(NC(=O)C4(C(=O)Nc5ccc(F)cc5)CC4)cc3)c2cc1OC + CC1OCC2(CCN(c3cnc(Sc4ccnc(N)c4Cl)c(N)n3)CC2)C1N | 5.79 | 6.24 | > 7.50 | > 7.50 | > 7.50 | 81 | 82.6 | 72 | 65.9 | 28.9 | 19 | 60.9 | 61.4 | 54.6 | 45.1 | 25.6 | 17.1 | 42.2 | 45.7 | 26.1 | viability, T/C [16]: 33%; viability, T/C [17]: 22.5%; viability, T/C [18]: 13%; viability, T/C [19]: 35.4%; viability, T/C [20]: 33.5%; viability, T/C [21]: 35.5%; viability, T/C [22]: 26.8%; viability, T/C [23]: 17.8%; viability, T/C [24]: 12%; viability, T/C [25]: 31.7%; viability, T/C [26]: 30.2%; viability, T/C [27]: 31.7%; viability, T/C [28]: 24.9%; viability, T/C [29]: 14.3%; viability, T/C [30]: 9.5%

Source: PubChem BioAssay AID1963870 (Molecular Pharmacology Branch, DTP, NCI, 2024)
